For 25 compounds, IC50 and inhibition results are on record in patent EP4806894A1, “TNAP INHIBITORY COMPOUND AND USE THEREOF” (Rednvia Co., Ltd., priority 2023, dated 2025).

Where a name gives a salt, the structure may show the parent alone.

Assay [1] concerns the target T1, TNAP (Homo sapiens, UniProt P05186).
T1 sequence (P05186 18-502 limits assumed): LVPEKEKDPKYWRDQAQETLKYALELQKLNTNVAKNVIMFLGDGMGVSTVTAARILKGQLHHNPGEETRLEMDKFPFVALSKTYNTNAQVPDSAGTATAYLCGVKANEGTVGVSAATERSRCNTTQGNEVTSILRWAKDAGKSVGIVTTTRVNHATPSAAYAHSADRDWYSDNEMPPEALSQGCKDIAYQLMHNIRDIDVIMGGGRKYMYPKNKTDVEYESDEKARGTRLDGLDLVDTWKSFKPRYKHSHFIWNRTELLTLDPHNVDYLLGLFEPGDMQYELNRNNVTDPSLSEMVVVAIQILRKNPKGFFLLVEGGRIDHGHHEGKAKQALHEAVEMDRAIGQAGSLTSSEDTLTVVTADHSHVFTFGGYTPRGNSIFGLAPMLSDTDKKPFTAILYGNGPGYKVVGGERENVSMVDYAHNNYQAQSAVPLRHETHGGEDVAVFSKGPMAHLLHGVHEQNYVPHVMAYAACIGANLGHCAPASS
Nature of the assay: TNAP inhibitory activity, colorimetric assay (alkaline phosphatase assay kit ab83369, pNPP substrate). It counts as biochemical. The conditions noted are these: TNAP enzyme, 2 hours at room temperature, absorbance 405 nm.

Assay [2] relates to saos-2 cells. Nature of the assay: Anticalcification efficacy in saos-2 cells (osteogenic medium, Alizarin Red staining). It is filed as cell-based. Conditions: Homo sapiens, 168 h, test compound 1 µM, 7 days osteogenic medium, Alizarin Red absorbance 540 nm, read-out: calcification inhibition. The method in brief:
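Saos-2 cells at 80–90% confluence induced for 7 days in osteogenic medium (DMEM, 100 nM dexamethasone, 10 mM β-glycerophosphate, 0.05 mM ascorbic acid), compound (0.5, 1, 5, 10 […]) added with each medium change. Alizarin Red staining eluted with cetylpyridinium chloride, A540 read; inhibition taken against OM-only absorbance.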

With `NCc1ccc(-c2cc(F)cc(F)c2S(=O)(=O)Nc2cnc3c(c2)C(=O)NCC3)cc1` [Example 40, 4'-(aminomethyl)-3,5-difluoro-N-(5-oxo-5,6,7,8-tetrahydro-1,6-naphthyridine-3-yl)-[1,1'-biphenyl]-2-sulfonamide hydrochloride], the IC50 in assay [1] was ≥ 1 µM. In addition, the inhibition at 1 µM in assay [2] was < 0%.
Taken in the same sequence, the figures for `COc1ccc(-c2ccc3c(c2)OCCO3)cc1S(=O)(=O)Nc1cnc2c(c1)C(=O)NCC2` [Example 29, 5-(2,3-dihydrobenzo[b][1,4]dioxine-6-yl)-2-methoxy-N-(5-oxo-5,6,7,8-tetrahydro-1,6-naphthyridine-3-yl)benzenesulfonamide] were 0.1 to 1 µM and ≥ 50%.
Taken in the same sequence, the figures for `O=C1NCCc2ncc(NS(=O)(=O)c3cc(F)ccc3-c3ccc(C4(C(=O)O)CC4)cc3)cc21` [Example 36, 1-(4'-fluoro-2'-(N-(5-oxo-5,6,7,8-tetrahydro-1,6-naphthyridine-3-yl)sulfamoyl)-[1,1'-biphenyl]-4-yl)cyclopropane-1-carboxylic acid] were 0.01 to 0.1 µM and ≥ 50%.
Regarding `COc1ccc(-c2cnn(C(C)c3nc(-c4ccc(F)cc4)no3)c2)cc1S(=O)(=O)Nc1cnc2c(c1)C(=O)NCC2` (centres unmarked) [Example 71, 5-(1-(1-(3-(4-fluorophenyl)-1,2,4-oxadiazole-5-yl)ethyl)-1H-pyrazole-4-yl)-2-methoxy-N-(5-oxo-5,6,7,8-tetrahydro-1,6-naphthyridine-3-yl)benzenesulfonamide], the IC50 in assay [1] was ≥ 1 µM. Moreover, in assay [2], the inhibition at 1 µM is < 0%.
In turn, `COc1ccc(Br)cc1S(=O)(=O)Nc1cnc2c(c1)CN(C(=O)OCCF)CC2` [Example 102, 2-fluoroethyl3-((5-bromo-2-methoxyphenyl)sulfonamido)-7,8-dihydro-1,6-naphthyridine-6(5H)-carboxylate] returned an IC50 in assay [1] of 0.01 to 0.1 µM. In assay [2], the inhibition at 1 µM is ≥ 50%.
For `COc1ccc(-c2cnn(C(C)(C)C(=O)O)c2)cc1S(=O)(=O)Nc1cnc2c(c1)C(=O)NCC2` [Example 60, 2-(4-(4-methoxy-3-(N-(5-oxo-5,6,7,8-tetrahydro-1,6-naphthyridine-3-yl)sulfamoyl)phenyl)-1H-pyrazole-1-yl)-2-methylpropanoic acid], in that order: 0.1 to 1 µM and ≥ 50%.
Taken in the same sequence, the figures for `COc1ccc(OC)c(S(=O)(=O)Nc2cnc3c(c2)CN(C(=O)OCC(C)(C)C)CC3)c1` [Example 100, neopentyl3-((5-methoxy-2-methoxyphenyl)sulfonamido)-7,8-dihydro-1,6-naphthyridine-6(5H)-carboxylate] were 0.1 to 1 µM and ≥ 50%.
As to `COc1ccc(C2=CCOCC2)cc1S(=O)(=O)Nc1cnc2c(c1)C(=O)NCC2` [Example 51, 5-(3,6-dihydro-2H-pyran-4-yl)-2-methoxy-N-(5-oxo-5,6,7,8-tetrahydro-1,6-naphthyridine-3-yl)benzenesulfonamide], in assay [1], the half-maximal inhibitory concentration (IC50) lay within 0.1 to 1 µM. Moreover, the inhibition at 1 µM in assay [2] is ≥ 50%.
For `COc1ccc(-c2ccc(OC)c(S(=O)(=O)Nc3cnc4c(c3)C(=O)NCC4)c2)cc1` [Example 30, 4,4'-dimethoxy-N-(5-oxo-5,6,7,8-tetrahydro-1,6-naphthyridine-3-yl)-[1,1'-biphenyl]-3-sulfonamide], in that order: ≥ 1 µM and 0 to 50%.
In turn, `COc1ccc(-c2ccc(F)nc2)cc1S(=O)(=O)Nc1cnc2c(c1)C(=O)NCC2` [Example 77, 5-(6-fluoropyridine-3-yl)-2-methoxy-N-(5-oxo-5,6,7,8-tetrahydro-1,6-naphthyridine-3-yl)benzenesulfonamide] returned a half-maximal inhibitory concentration (IC50) in assay [1] of 0.1 to 1 µM. The inhibition at 1 µM in assay [2] was ≥ 50%.
Take `O=S(=O)(Nc1cnc2c(c1)CNCC2)c1cc(F)ccc1Br` [Example 91, 5-fluoro-2-bromo-N-(5,6,7,8-tetrahydro-1,6-naphthyridine-3-yl)benzenesulfonamide hydrochloride]: the IC50 in assay [1] was ≥ 1 µM. The inhibition at 1 µM in assay [2] was < 0%.
Take `COc1ccc(-c2cnn(C3COC3)c2)cc1S(=O)(=O)Nc1cnc2c(c1)C(=O)NCC2` [Example 79, 2-methoxy-5-(1-(oxetane-3-yl)-1H-pyrazole-4-yl)-N-(5-oxo-5,6,7,8-tetrahydro-1,6-naphthyridine-3-yl)benzenesulfonamide]: in assay [1], the IC50 was 0.1 to 1 µM. For the same compound, the inhibition at 1 µM in assay [2] was ≥ 50%.
In the case of `COc1ccc(OC)c(S(=O)(=O)Nc2cnc3c(c2)CN(C(=O)OCCF)CC3)c1` [Example 103, 2-fluoroethyl-3-((5-methoxy-2-methoxyphenyl)sulfonamido)-7,8-dihydro-1,6-naphthyridine-6(5H)-carboxylate], in assay [1], the 50% inhibitory concentration (IC50) fell in the range of 0.01 to 0.1 µM. Moreover, the inhibition at 1 µM in assay [2] was ≥ 50%.
Consider `CCOC(=O)C(C)n1cc(-c2ccc(OC)c(S(=O)(=O)Nc3cnc4c(c3)C(=O)NCC4)c2)cn1` (centres unmarked) [Example 42, ethyl 2-(4-(4-methoxy-3-(N-(5-oxo-5,6,7,8-tetrahydro-1,6-naphthyridine-3-yl)sulfamoyl)phenyl)-1H-pyrazole-1-yl)propanoate], for which the IC50 in assay [1] is ≤ 0.01 µM. In assay [2], the inhibition at 1 µM was ≥ 50%.
As for `COc1ccc(Cl)cc1S(=O)(=O)Nc1cnc2c(c1)C(=O)NCCC2` [Example 13, 5-chloro-2-methoxy-N-(5-oxo-6,7,8,9-tetrahydro-5H-pyrido[3,2-c]azepine-3-yl)benzenesulfonamide], in assay [1], the IC50 fell in the range of 0.1 to 1 µM. Besides, the inhibition at 1 µM in assay [2] is ≥ 50%.
In assay [1], `COc1ccc(Br)cc1S(=O)(=O)Nc1cnc2c(c1)CN(C(=O)N1CCOCC1)CC2` [Example 110, 5-bromo-2-methoxy-N-(6-(morpholine-4-carbonyl)-5,6,7,8-tetrahydro-1,6-naphthyridine-3-yl)benzenesulfonamide] registered an IC50 of 0.01 to 0.1 µM. The inhibition at 1 µM in assay [2] is ≥ 50%.
Taken in the same sequence, the figures for `COc1ccc(Cl)cc1S(=O)(=O)Nc1cnc2c(c1)CN(C(=O)Nc1ccccc1)CC2` [Example 115, 3-((5-chloro-2-methoxyphenyl)sulfonamido)-N-phenyl-7,8-dihydro-1,6-naphthyridine-6(5H)-carboxamide] were 0.01 to 0.1 µM and ≥ 50%.
With `CCOC(=O)CCc1ccc(-c2ccc(OC)c(S(=O)(=O)Nc3cnc4c(c3)C(=O)NCC4)c2)cc1` [Example 49, ethyl 3-(4'-methoxy-3'-(N-(5-oxo-5,6,7,8-tetrahydro-1,6-naphthyridine-3-yl)sulfamoyl)-[1,1'-biphenyl]-4-yl)propanoate], in assay [1], the IC50 fell in the range of 0.01 to 0.1 µM. Further, the inhibition at 1 µM in assay [2] is ≥ 50%.
Taken in the same sequence, the figures for `COc1ccc(-c2cnn(C(C)C)c2)cc1S(=O)(=O)Nc1cnc2c(c1)C(=O)NCC2` [Example 72, 5-(1-isopropyl-1H-pyrazole-4-yl)-2-methoxy-N-(5-oxo-5,6,7,8-tetrahydro-1,6-naphthyridine-3-yl)benzenesulfonamide] were 0.01 to 0.1 µM and ≥ 50%.
Compound `COc1ccc(-c2cnn(C)c2)cc1S(=O)(=O)Nc1cnc2c(c1)C(=O)NCC2` [Example 57, 2-methoxy-5-(1-methyl-1H-pyrazole-4-yl)-N-(5-oxo-5,6,7,8-tetrahydro-1,6-naphthyridine-3-yl)benzenesulfonamide] came in with an IC50 in assay [1] of 0.1 to 1 µM. In addition, in assay [2], the inhibition at 1 µM is ≥ 50%.
The compound `COc1ccc(-c2cnn3ccccc23)cc1S(=O)(=O)Nc1cnc2c(c1)C(=O)NCC2` [Example 45, 2-methoxy-N-(5-oxo-5,6,7,8-tetrahydro-1,6-naphthyridine-3-yl)-5-(pyrazolo[1,5-a]pyridine-3-yl)benzenesulfonamide] showed an IC50 in assay [1] of 0.1 to 1 µM. Further, the inhibition at 1 µM in assay [2] was ≥ 50%.
Taken in the same sequence, the figures for `COc1ccc(Cl)cc1S(=O)(=O)Nc1cnc2c(c1)CN(C(=O)NCC1CC1)CC2` [Example 116, 3-((5-chloro-2-methoxyphenyl)sulfonamido)-N-(cyclopropylmethyl)-7,8-dihydro-1,6-naphthyridine-6(5H)-carboxamide] were 0.01 to 0.1 µM and ≥ 50%.
As for `COc1ccc(Cl)cc1S(=O)(=O)Nc1cnc2c(c1)CN(C(C)C)CC2` [Example 112, 5-chloro-N-(6-isopropyl-5,6,7,8-tetrahydro-1,6-naphthyridine-3-yl)-2-methoxybenzenesulfonamide], the concentration for half-maximal inhibition (IC50) in assay [1] lay in the range of 0.1 to 1 µM. Moreover, the inhibition at 1 µM in assay [2] was < 0%.
Regarding `COc1ccc(-c2cnoc2)cc1S(=O)(=O)Nc1cnc2c(c1)C(=O)NCC2` [Example 83, 5-(isoxazole-4-yl)-2-methoxy-N-(5-oxo-5,6,7,8-tetrahydro-1,6-naphthyridine-3-yl)benzenesulfonamide], the IC50 in assay [1] lay in the range of 0.01 to 0.1 µM. Also, in assay [2], the inhibition at 1 µM is ≥ 50%.
In assay [1], `CCCCCNC(=O)N1CCc2ncc(NS(=O)(=O)c3cc(Cl)ccc3OC)cc2C1` [Example 106, 3-((5-chloro-2-methoxyphenyl)sulfonamido)-N-pentyl-7,8-dihydro-1,6-naphthyridine-6(5H)-carboxamide] had an IC50 of 0.1 to 1 µM. Moreover, the inhibition at 1 µM in assay [2] is ≥ 50%.

The term IC50 denotes the concentration that inhibits the measured activity by half. One may read the inhibition as the share of the control response that was lost under treatment.
